In patent US8759390B2, “Chromene modulators of chemokine receptor activity” (Bristol-Myers Squibb Company, priority 2008, dated 2014):

Molecular target: T1, CCR2 (Homo sapiens, UniProt P41597)
T1 construct: THP-1 human monocytic leukemic cell line, which expresses endogenous CCR2; endogenous in cells; host or cells: THP-1 human monocytic leukemia cells, or human PBMC / human monocytes
T1 sequence (P41597 1-360 isoform P41597-2): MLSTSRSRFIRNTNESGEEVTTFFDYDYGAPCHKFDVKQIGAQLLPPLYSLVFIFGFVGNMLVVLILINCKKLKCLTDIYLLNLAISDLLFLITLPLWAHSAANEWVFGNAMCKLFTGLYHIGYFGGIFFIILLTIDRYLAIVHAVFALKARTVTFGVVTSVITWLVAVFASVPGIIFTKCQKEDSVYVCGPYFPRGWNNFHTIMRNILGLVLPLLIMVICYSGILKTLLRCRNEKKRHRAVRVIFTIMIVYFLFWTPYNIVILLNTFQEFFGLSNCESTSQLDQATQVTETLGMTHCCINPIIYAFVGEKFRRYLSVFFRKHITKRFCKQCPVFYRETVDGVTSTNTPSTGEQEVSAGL
Experiment: CCR2 binding (125I-human MCP-1 competition on human PBMC / THP-1 cells)
Conditions: n = 1 unless otherwise noted; tested in one of the assays described
Procedure: Antagonism of MCP-1 Binding to Human PBMC
Millipore filter plates (#MABVN1250) are treated with 100 μl of binding buffer (0.5% bovine serum albumin, 20 mM HEPES buffer and 5 mM magnesium chloride in RPMI 1640 media) for thirty minutes at room temperature. To measure binding, 50 μl of binding buffer, with or without a known concentration compound, is combined with 50 μl of ^125-I labeled human MCP-1 (to give a final concentration of […] radioligand) and 50 μl of binding buffer containing 5×10^5 cells. Cells used for such binding assays can include human peripheral blood mononuclear cells isolated by Ficoll-Hypaque gradient centrifugation, human monocytes (Weiner et al., J. Immunol. Methods. 1980, 36, 89), or the THP-1 cell line which expresses the endogenous receptor. The mixture of compound, cells and radioligand are incubated at room temperature for thirty minutes. Plates are placed onto a vacuum manifold, vacuum applied, and the plates washed three times with binding buffer containing 0.5M NaCl. The plastic skirt is removed from the plate, the plate allowed to air dry, the wells punched out and counted. The percent inhibition of binding is calculated using the total counts obtained in the absence of any competing compound and the background binding determined by addition of 100 nM MCP-1 in place of the test compound.
THP-1 Monocytic Cell Binding: Whole Cell-Based Assay
The human CCR2 binding assay was also established with the THP-1 human monocytic leukemic cell line, which expresses endogenous CCR2, using ^125I-human MCP-1 as the tracer ligand. Radioligand competition binding assays were used for assessment of binding affinity of test compounds to the CCR2 receptor. For radioligand competition studies, 100 μl containing 2.5×10^5 THP-1 cells/well (in assay buffer containing 50 mM HEPES, pH7.4, 5mM MgCl2, 1 mM CaCl2 and 0.5% BSA) were added to 96-well assay plates containing the test compounds in 3-fold serial dilution, with final concentrations ranging from 5 μM to […]. Subsequently, 50 μl ^125I-MCP-1 radioligand at a final concentration of 0.2 nM in assay buffer were added to the reaction. After a 90 minute incubation period at room temperature, the binding reaction was terminated by harvesting on GF/B filter plates (PerkinElmer Cat. No. 6005177) followed by washing with ice-cold wash buffer (50 mM HEPES, pH 7.4, 0.1% BSA, 0.5 M NaCl) to remove unbound ligand. After washing, the plate was dried for 45 minutes at 60° C. followed by addition of 40 μl MicroScint 20 scintillation fluid, sealed and analyzed by the Packard TopCount reader. Non-specific binding was determined in the presence of 10 μM (a molar excess of […]) of an in-house CCR2 small molecule antagonist (CCR2 IC50=2 nM). Specific binding of ^125I-MCP-1 was calculated as the difference between total and non-specific binding. The competition data was plotted as a percentage inhibition of radioligand specific bound in the absence of test compound (percent of total signal). After correcting for non-specific binding, IC50 values were determined The IC50 is defined as the concentration of test compound required to reduce ^125I-MCP-1 specific binding by 50% and was calculated using the four parameter logistic equation to fit the normalized data.

Compound	Ki [nM]
O=C(O)C1=Cc2ccccc2OC1c1ccc(C(F)(F)F)c(Cl)c1 (racemic) [Example 7-5, 2-(3-chloro-4-trifluoromethyl-phenyl)-2H-chromene-3-carboxylic acid]	390
COc1ccc2c(c1)C=C(C(=O)O)C(c1ccc(Cl)c(Cl)c1)O2 (racemic) [Example 8, 2-(3,4-dichlorophenyl)-6-methoxy-2H-chromene-3-carboxylic acid]	360
O=C(O)C1=Cc2ccc(F)cc2OC1c1ccc(Cl)c(Cl)c1 (racemic) [Example 9-1, 2-(3,4-dichlorophenyl)-7-fluoro-2H-chromene-3-carboxylic acid]	350
O=C(O)C1=Cc2ccc3ccccc3c2OC1c1ccc(Cl)c(Cl)c1 (racemic) [Example 9-3, 2-(3,4-dichlorophenyl)-2H-benzo[h]chromene-3-carboxylic acid]	1200
COc1ccc2c(c1)OC(c1ccc(Cl)c(Cl)c1)C(C(=O)O)=C2 (racemic) [Example 9-6, 2-(3,4-dichlorophenyl)-7-methoxy-2H-chromene-3-carboxylic acid]	300

Next, values leading:

Ki [nM]	Compound
170	O=C(O)C1=Cc2ccccc2OC1c1ccc(Cl)c(Br)c1 (racemic) [Example 7-4, 2-(3-bromo-4-chlorophenyl)-2H-chromene-3-carboxylic acid]
300	O=C(O)C1=Cc2cc(Cl)ccc2OC1c1ccc(Cl)c(Cl)c1 (racemic) [Example 9-2, 2-(3,4-dichlorophenyl)-6-chloro-2H-chromene-3-carboxylic acid]
340	O=C(O)C1=Cc2cc(F)ccc2OC1c1ccc(Cl)c(Cl)c1 (racemic) [Example 9-4, 2-(3,4-dichlorophenyl)-6-fluoro-2H-chromene-3-carboxylic acid]
720	O=C(O)C1=Cc2ccc(Br)cc2OC1c1ccc(Cl)c(Cl)c1 (racemic) [Example 9-5, 2-(3,4-dichlorophenyl)-7-bromo-2H-chromene-3-carboxylic acid]
1700	O=C(O)C1=Cc2ccccc2OC1c1ccc(Cl)c(Cl)c1 (single isomer, unassigned; (+)) [Example 6b, (+)-2-(3,4-dichlorophenyl)-2H-chromene-3-carboxylic acid]
80	O=C(O)C1=Cc2ccccc2OC1c1ccc(Cl)c(Cl)c1 (single isomer, unassigned; (-)) [Example 6a, (−)-2-(3,4-dichlorophenyl)-2H-chromene-3-carboxylic acid]
